Assay results as given in patent US9765091B2, “Tetrahydropyrazolo [3,4-b] azepine derivatives and their use as allosteric modulators of metabotropic glutamate receptors” (Addex Pharma S.A., priority 2010, dated 2017).

Molecular target: T1, human mGluR4 (Homo sapiens, UniProt Q14833)
T1 construct: expressed in transfected cells
Test: Fluorescent cell based Ca2+ mobilization assay (FLIPR) on HEK-293 cells expressing human mGluR4
Conditions: positive allosteric modulation, HEK-293 cells expressing hmGluR4, stimulated by EC25 glutamate; mean of at least three independent experiments in duplicate; read-out: Ca^2+ Flux* (mean EC50)
From the text: mGluR4 Assay on HEK-Expressing Human mGluR4
The compounds of the present invention are positive allosteric modulators of mGluR4 receptor. Their activity was examined on recombinant human mGluR4a receptors by detecting changes in intracellular Ca^2+ concentration, using the fluorescent Ca^2+-sensitive dye Fluo4-(AM) and a Fluorometric Imaging Plate Reader (FLIPR, Molecular Devices, Sunnyvale, Calif.).
The cDNA encoding the human metabotropic glutamate receptor (hmGluR4), (accession number NM_000841.1, NCBI Nucleotide database browser), was subcloned into an expression vector containing also the hygromycin resistance gene. In parallel, the cDNA encoding a G protein allowing redirection of the activation signal to intracellular calcium flux was subcloned into a different expression vector containing also the puromycin resistance gene. Transfection of both these vectors into HEK293 cells with PolyFect reagent (Qiagen) according to supplier's protocol, and hygromycin and puromycin treatment allowed selection of antibiotic resistant cells which had integrated stably one or more copies of the plasmids. Positive cellular clones expressing hmGluR4 were identified in a functional assay measuring changes in calcium fluxes in response to glutamate or selective known mGluR4 orthosteric agonists and antagonists. HEK-293 cells expressing hmGluR4 were maintained in media containing DMEM, dialyzed Fetal Calf Serum (10%), Glutamax™ (2 mM), Penicillin (100 units/mL), Streptomycin (100 μg/mL), Geneticin (100 μg/mL) and Hygromycin-B (40 μg/mL) and puromycin (1 μg/mL) at 37° C./5% CO2.
Human mGluR4 HEK-293 cells were plated out 24 hours prior to FLIPR^384 assay in black-walled, clear-bottomed, poly-L-ornithine-coated 384-well plates at a density of 25,000 cells/well in a glutamine/glutamate free DMEM medium containing foetal bovine serum (10%), penicillin (100 units/mL) and streptomycin (100 μg/mL) at 37° C./5% CO2.
On the day of the assay, the medium was aspirated and the cells were loaded with a 3 μM solution of Fluo4-AM (LuBioScience, Lucerne, Switzerland) in 0.03% pluronic acid. After 1 hour at 37° C./5% CO2, the non incorporated dye was removed by washing cell plate with the assay buffer and the cells were left in the dark at room temperature for […] before testing. All assays were performed in a pH 7.4 buffered-solution containing 20 mM HEPES, 143 mM NaCl, 6 mM KCl, 1 mM MgSO4, 1 mM CaCl2, 0.125 mM sulfapyrazone and 0.1% glucose.
After 10 s of basal fluorescence recording, various concentrations of the compounds of the invention were added to the cells. Changes in fluorescence levels were first monitored for 180 s in order to detect any agonist activity of the compounds. Then the cells were stimulated by an EC25 glutamate concentration for an additional 110 s in order to measure enhancing activities of the compounds of the invention. EC25 glutamate concentration is the concentration giving 25% of the maximal glutamate response.
The concentration-response curves of representative compounds of the present invention were generated using the Prism GraphPad software (Graph Pad Inc, San Diego, USA). The curves were fitted to a four-parameter logistic equation: (Y=Bottom+(Top−Bottom)/(1+10^((Log EC50−X)*Hill Slope) allowing the determination of EC50 values.
The Table 4 below represents the mean EC50 obtained from at least three independent experiments of selected molecules performed in duplicate.

T1 sequence (Q14833 33-912): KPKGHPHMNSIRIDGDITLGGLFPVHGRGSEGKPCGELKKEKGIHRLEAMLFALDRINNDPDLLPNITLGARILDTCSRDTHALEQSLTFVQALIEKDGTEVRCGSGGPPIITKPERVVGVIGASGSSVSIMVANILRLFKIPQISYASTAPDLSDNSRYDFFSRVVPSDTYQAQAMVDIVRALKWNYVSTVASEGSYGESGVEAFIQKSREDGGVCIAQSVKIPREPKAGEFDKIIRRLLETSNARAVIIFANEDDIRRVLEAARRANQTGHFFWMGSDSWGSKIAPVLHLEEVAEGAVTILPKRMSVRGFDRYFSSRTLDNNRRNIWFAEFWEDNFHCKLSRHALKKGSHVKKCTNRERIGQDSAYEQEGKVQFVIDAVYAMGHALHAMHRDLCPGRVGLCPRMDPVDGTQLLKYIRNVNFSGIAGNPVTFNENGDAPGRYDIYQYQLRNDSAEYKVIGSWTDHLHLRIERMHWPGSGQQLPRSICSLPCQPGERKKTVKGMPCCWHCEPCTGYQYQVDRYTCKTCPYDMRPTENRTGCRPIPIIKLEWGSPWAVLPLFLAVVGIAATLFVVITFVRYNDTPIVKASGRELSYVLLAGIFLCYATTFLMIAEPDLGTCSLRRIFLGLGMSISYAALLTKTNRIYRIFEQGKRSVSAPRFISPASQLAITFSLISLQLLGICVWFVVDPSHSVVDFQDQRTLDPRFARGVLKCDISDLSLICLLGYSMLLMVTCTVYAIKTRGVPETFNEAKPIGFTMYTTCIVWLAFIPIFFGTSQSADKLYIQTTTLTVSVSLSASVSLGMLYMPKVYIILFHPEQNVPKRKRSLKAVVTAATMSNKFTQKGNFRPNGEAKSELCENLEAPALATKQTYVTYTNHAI

Structure (SMILES)	EC50 [µM]
Fc1cnc(Nc2nc3c(s2)CCN(Cc2ncccc2Cl)c2[nH]ncc2-3)nc1 [Compound 1-64, 6-((3-Chloropyridin-2-yl)methyl)-N-(5-fluoropyrimidin-2-yl)-4,5,6,7-tetrahydropyrazolo[3,4-b]thiazolo[4,5-d]azepin-2-amine]	0.1 to 1
Fc1cnc(Nc2nc3c(s2)CCN(Cc2cccc(Cl)c2)c2[nH]ncc2-3)nc1 [Compound 1-67, 6-(3-Chlorobenzyl)-N-(5-fluoropyrimidin-2-yl)-4,5,6,7-tetrahydropyrazolo[3,4-b]thiazolo[4,5-d]azepin-2-amine]	0.1 to 1
COCCN1CCc2sc(Nc3cccc(CF)n3)nc2-c2cn[nH]c21 [Compound 1-83, N-(6-(Fluoromethyl)pyridin-2-yl)-6-(2-methoxyethyl)-4,5,6,7-tetrahydropyrazolo[3,4-b]thiazolo[4,5-d]azepin-2-amine]	0.1 to 1
Cc1ccnc(Nc2nc3c(s2)CCN(Cc2ccn(C)n2)c2n[nH]cc2-3)n1 [Compound 1-16, 6-((1-Methyl-1H-pyrazol-3-yl)methyl)-N-(4-methylpyrimidin-2-yl)-4,5,6,8-tetrahydropyrazolo[3,4-b]thiazolo[4,5-d]azepin-2-amine]	< 0.1
Fc1cnc(Nc2nc3c(s2)CCN(CC2CCNCC2)c2[nH]ncc2-3)nc1 [Compound 1-78, N-(5-Fluoropyrimidin-2-yl)-6-(piperidin-4-ylmethyl)-4,5,6,7-tetrahydropyrazolo[3,4-b]thiazolo[4,5-d]azepin-2-amine]	1 to 10
COCCN1CCc2sc(Nc3cccc(CO)n3)nc2-c2c[nH]nc21 [Compound 1-53, (6-(6-(2-Methoxyethyl)-4,5,6,8-tetrahydropyrazolo[3,4-b]thiazolo[4,5-d]azepin-2-ylamino)pyridin-2-yl)methanol]	1 to 10
COCCN1CCc2sc(Nc3ncc(F)cn3)nc2-c2c[nH]nc21 [Compound 1-12, N-(5-Fluoropyrimidin-2-yl)-6-(2-methoxyethyl)-4,5,6,8-tetrahydropyrazolo[3,4-b]thiazolo[4,5-d]azepin-2-amine]	< 0.1
Fc1cnc(Nc2nc3c(s2)CCN(CCc2ccccn2)c2[nH]ncc2-3)nc1 [Compound 1-71, N-(5-Fluoropyrimidin-2-yl)-6-(2-(pyridin-2-yl)ethyl)-4,5,6,7-tetrahydropyrazolo[3,4-b]thiazolo[4,5-d]azepin-2-amine]	1 to 10
COCCN1CCc2sc(Nc3nccc(OC)n3)nc2-c2c[nH]nc21 [Compound 1-18, 6-(2-Methoxyethyl)-N-(4-methoxypyrimidin-2-yl)-4,5,6,8-tetrahydropyrazolo[3,4-b]thiazolo[4,5-d]azepin-2-amine]	< 0.1
COCCCN1CCc2sc(Nc3ncc(F)cn3)nc2-c2c[nH]nc21 [Compound 1-33, N-(5-Fluoropyrimidin-2-yl)-6-(3-methoxypropyl)-4,5,6,8-tetrahydropyrazolo[3,4-b]thiazolo[4,5-d]azepin-2-amine]	< 0.1
COCCN1CC(C)c2sc(Nc3ncc(F)cn3)nc2-c2cn[nH]c21 (stereo not shown) [Compound 1-84, N-(5-Fluoropyrimidin-2-yl)-6-(2-methoxyethyl)-4-methyl-4,5,6,7-tetrahydropyrazolo[3,4-b]thiazolo[4,5-d]azepin-2-amine]	0.1 to 1
Fc1cnc(Nc2nc3c(s2)CCN(Cc2ccn[nH]2)c2n[nH]cc2-3)nc1 [Compound 1-56, 6-((1H-Pyrazol-5-yl)methyl)-N-(5-fluoropyrimidin-2-yl)-4,5,6,8-tetrahydropyrazolo[3,4-b]thiazolo[4,5-d]azepin-2-amine]	0.1 to 1
Fc1cnc(Nc2nc3c(s2)CCN(C2CCC2)c2[nH]ncc2-3)nc1 [Compound 1-82, 6-Cyclobutyl-N-(5-fluoropyrimidin-2-yl)-4,5,6,7-tetrahydropyrazolo[3,4-b]thiazolo[4,5-d]azepin-2-amine]	1 to 10
Fc1cnc(Nc2nc3c(s2)CCN(CC2CCC2)c2n[nH]cc2-3)nc1 [Compound 1-44, 6-(Cyclobutylmethyl)-N-(5-fluoropyrimidin-2-yl)-4,5,6,8-tetrahydropyrazolo[3,4-b]thiazolo[4,5-d]azepin-2-amine]	< 0.1
COCCN1CCc2sc(Nc3cccc(N)n3)nc2-c2c[nH]nc21 [Compound 1-21, N^2-(6-(2-Methoxyethyl)-4,5,6,8-tetrahydropyrazolo[3,4-b]thiazolo[4,5-d]azepin-2-yl) pyridine-2,6-diamine]	< 0.1
COCCN1CCc2sc(Nc3nc(C)ccc3F)nc2-c2cn[nH]c21 [Compound 1-66, N-(3-Fluoro-6-methylpyridin-2-yl)-6-(2-methoxyethyl)-4,5,6,7-tetrahydropyrazolo[3,4-b]thiazolo[4,5-d]azepin-2-amine]	0.1 to 1
Fc1cnc(Nc2nc3c(s2)CCN(C[C@H]2CCCO2)c2[nH]ncc2-3)nc1 [Compound 1-51]	< 0.1
Fc1ccc(CN2CCc3sc(Nc4ncc(F)cn4)nc3-c3cn[nH]c32)nc1 [Compound 1-61, 6-((5-Fluoropyridin-2-yl)methyl)-N-(5-fluoropyrimidin-2-yl)-4,5,6,7-tetrahydropyrazolo[3,4-b]thiazolo[4,5-d]azepin-2-amine]	< 0.1

Second part, the molecule after the results:

EC50 [µM]	Structure (SMILES)
< 0.1	Cc1ccnc(Nc2nc3c(s2)CCN(CC2CCCO2)c2n[nH]cc2-3)n1 (stereo not shown) [Compound 1-10, N-(4-Methylpyrimidin-2-yl)-6-((tetrahydrofuran-2-yl)methyl)-4,5,6,8-tetrahydropyrazolo[3,4-b]thiazolo[4,5-d]azepin-2-amine]
1 to 10	COCCN1CCc2sc(Nc3ccnc(C)n3)nc2-c2c[nH]nc21 [Compound 1-54, 6-(2-Methoxyethyl)-N-(2-methylpyrimidin-4-yl)-4,5,6,8-tetrahydropyrazolo[3,4-b]thiazolo[4,5-d]azepin-2-amine]
0.1 to 1	CN1CCc2sc(Nc3ncc(F)cn3)nc2-c2c[nH]nc21 [Compound 1-2, N-(5-Fluoropyrimidin-2-yl)-6-methyl-4,5,6,8-tetrahydropyrazolo[3,4-b]thiazolo[4,5-d]azepin-2-amine]
0.1 to 1	Cn1cnc(CN2CCc3sc(Nc4ncc(F)cn4)nc3-c3cn[nH]c32)c1 [Compound 1-80, N-(5-Fluoropyrimidin-2-yl)-6-((1-methyl-1H-imidazol-4-yl)methyl)-4,5,6,7-tetrahydropyrazolo[3,4-b]thiazolo[4,5-d]azepin-2-amine]
< 0.1	COCCN1CCc2sc(Nc3nsc(C)n3)nc2-c2c[nH]nc21 [Compound 1-19, 6-(2-Methoxyethyl)-N-(5-methyl-1,2,4-thiadiazol-3-yl)-4,5,6,8-tetrahydropyrazolo[3,4-b]thiazolo[4,5-d]azepin-2-amine]
< 0.1	CC(C)N1CCc2sc(Nc3ncc(F)cn3)nc2-c2c[nH]nc21 [Compound 1-6, N-(5-Fluoropyrimidin-2-yl)-6-isopropyl-4,5,6,8-tetrahydropyrazolo[3,4-b]thiazolo[4,5-d]azepin-2-amine]
< 0.1	COCCN1CCc2sc(Nc3ncc(O)cn3)nc2-c2cn[nH]c21 [Compound 1-50, 2-(6-(2-Methoxyethyl)-4,5,6,7-tetrahydropyrazolo[3,4-b]thiazolo[4,5-d]azepin-2-ylamino)pyrimidin-5-ol]
< 0.1	Cc1ccnc(CN2CCc3nc(Nc4ncc(F)cn4)sc3-c3cn[nH]c32)c1 [Compound 1-63]
< 0.1	Cc1cc(CN2CCc3sc(Nc4nccc(C)n4)nc3-c3c[nH]nc32)on1 [Compound 1-46, 6-((3-Methylisoxazol-5-yl)methyl)-N-(4-methylpyrimidin-2-yl)-4,5,6,8-tetrahydropyrazolo[3,4-b]thiazolo[4,5-d]azepin-2-amine]
0.1 to 1	Fc1cnc(Nc2nc3c(s2)CCN(Cc2ncc(Cl)s2)c2[nH]ncc2-3)nc1 [Compound 1-79, 6-((5-Chlorothiazol-2-yl)methyl)-N-(5-fluoropyrimidin-2-yl)-4,5,6,7-tetrahydropyrazolo[3,4-b]thiazolo[4,5-d]azepin-2-amine]
